In US20240124444A1 (Celgene Corporation, priority 2020, published 2024):
Like-named read-outs stand apart in the source and are kept apart here.

Test system: C. parvum strain UGA1
Experiment: C. parvum growth inhibition assay (Nluc luminescence in HCT-8 cells)
Format: cell-based, Cryptosporidium parvum
Conditions: Cryptosporidium parvum; for inhibition at 1 µM / inhibition at 10 µM: HCT-8; for inhibition at 1 µM: read-out: % inh @ 1 uM C. parvum; for inhibition at 10 µM: read-out: % inh @ 10 uM C. parvum; for EC50: HCT-8, 48 h, C. parvum growth inhibition in HCT-8 cells, 48 hours, 6 concentrations 10-0.04 μM
[1] = single point inhibition at 1 uM
[2] = single point inhibition at 10 uM
[3] = single point inhibition @ 10 uM

Compound	inhibition at 1 µM [1] [%]	inhibition at 10 µM [2] [%]	EC50 [µM]	further results
COc1nccc(-c2cc3cnc(NC(=O)c4cccc5[nH]ncc45)cc3[nH]2)n1 [Example 269, N-(2-(2-methoxypyrimidin-4-yl)-1H-pyrrolo[3,2-c]pyridin-6-yl)-1H-indazole-4-carboxamide]	0 to 33	0 to 33	–	–
Cn1cc(C(=O)Nc2cc3[nH]c(-c4ccnc(OCC(F)F)n4)cc3cn2)cn1 [Example 310, N-(2-(2-(2,2-difluoroethoxy)pyrimidin-4-yl)-1H-pyrrolo[3,2-c]pyridin-6-yl)-1-methyl-1H-pyrazole-4-carboxamide]	0 to 33	0 to 33	–	–
O=C(Nc1cc2[nH]c(-c3ccc(F)nc3)cc2cn1)C1CC1 [Example 248, N-(2-(6-fluoropyridin-3-yl)-1H-pyrrolo[3,2-c]pyridin-6-yl)cyclopropanecarboxamide]	0 to 33	0 to 33	–	–
Cc1cc(-c2cc3cnc(NC4CCOCC4)cc3[nH]2)nc(C)n1 [Example 393, 2-(2,6-dimethylpyrimidin-4-yl)-N-(tetrahydro-2H-pyran-4-yl)-1H-pyrrolo[3,2-c]pyridin-6-amine]	–	–	> 1	–
FC(F)(F)CNc1cc(-c2cc3cnc(NC4CCOCC4)cc3[nH]2)ncn1 [Example 360, N -(tetrahydro-2H-pyran-4-yl)-2-(6-(2,2,2-trifluoroethylamino)pyrimidin-4-yl)-1H-pyrrolo[3,2-c]pyridin-6-amine]	–	–	< 0.5	–
CCOc1nccc(-c2cc3cnc(NC(=O)c4ccc(OC)c(OC)c4)cc3[nH]2)n1 [Example 321, N-(2-(2-ethoxypyrimidin-4-yl)-1H-pyrrolo[3,2-c]pyridin-6-yl)-3,4-dimethoxybenzamide]	0 to 33	0 to 33	–	–
CSc1ccc(Nc2cc3c(cn2)cc(-c2cnn(C)c2)n3C)cc1 [Example 193, 1-methyl-2-(1-methyl-1H-pyrazol-4-yl)-N-(4-(methylthio)phenyl)-1H-pyrrolo[3,2-c]pyridin-6-amine]	–	–	–	inhibition at 1 µM (single point inhibition @ 1 uM): 0 to 33%; inhibition at 10 µM [3]: 67 to 100%
Cc1ccc(-c2cc3cnc(NC4CCOCC4)cc3[nH]2)cc1 [Example 351, N-(tetrahydro-2H-pyran-4-yl)-2-p-tolyl-1H-pyrrolo[3,2-c]pyridin-6-amine]	–	–	> 1	–
Cc1ncc(-c2cc3cnc(NC(=O)C4CC4)cc3[nH]2)s1 [Example 101, N-(2-(2-methylthiazol-5-yl)-1H-pyrrolo[3,2-c]pyridin-6-yl)cyclopropanecarboxamide]	–	–	> 1	–
Cc1cc(Nc2cc3[nH]c(-c4ccncc4)cc3cn2)nn1C(C)C [Example 168, N-(1-isopropyl-5-methyl-1H-pyrazol-3-yl)-2-(pyridin-4-yl)-1H-pyrrolo[3,2-c]pyridin-6-amine]	–	–	–	inhibition at 1 µM (single point inhibition @ 1 uM): 33 to 66%; inhibition at 10 µM [3]: 67 to 100%
Cc1cc(-c2cc3cnc(NC(=O)C4CCC4)cc3[nH]2)ncn1 [Example 98, N-(2-(6-methylpyrimidin-4-yl)-1H-pyrrolo[3,2-c]pyridin-6-yl)cyclobutanecarboxamide]	–	–	> 1	–
O=C(Nc1cc2[nH]c(-c3ccnc(C(F)(F)F)n3)cc2cn1)C1C2CCCC21 (stereo not shown) [Example 199, N-(2-(2-(trifluoromethyl)pyrimidin-4-yl)-1H-pyrrolo[3,2-c]pyridin-6-yl)bicyclo[3.1.0]hexane-6-carboxamide]	0 to 33	67 to 100	–	–
CC(C)n1cc(C(=O)Nc2cc3c(cn2)cc(-c2ccnc(NCC4CC4)n2)n3C)cn1 [Example 131, N-(2-(2-(cyclopropylmethylamino)pyrimidin-4-yl)-1-methyl-1H-pyrrolo[3,2-c]pyridin-6-yl)-1-isopropyl-1H-pyrazole-4-carboxmaide]	–	–	–	inhibition at 1 µM (single point inhibition @ 1 uM): 0 to 33%; inhibition at 10 µM [3]: 67 to 100%
Cc1cc(-c2cc3cnc(NC(=O)c4cnn(C5CCC5)c4)cc3[nH]2)ccn1 [Example 205, 1-cyclobutyl-N-(2-(2-methylpyridin-4-yl)-1H-pyrrolo[3,2-c]pyridin-6-yl)-1H-pyrazole-4-carboxamide]	0 to 33	67 to 100	–	–
O=C(Nc1cc2[nH]c(-c3ccnc(OCC(F)F)n3)cc2cn1)c1cnn([C@H]2CC[C@@H](O)CC2)c1 [Example 323, N-(2-(2-(2,2-difluoroethoxy)pyrimidin-4-yl)-1H-pyrrolo[3,2-c]pyridin-6-yl)-1-((1s,4s)-4-hydroxycyclohexyl)-1H-pyrazole-4-carboxamide]	0 to 33	0 to 33	–	–
Cn1cc(C(=O)Nc2cc3[nH]c(-c4ccc(C(F)(F)F)nc4)cc3cn2)cn1 [Example 306, 1-methyl-N-(2-(6-(trifluoromethyl)pyridin-3-yl)-1H-pyrrolo[3,2-c]pyridin-6-yl)-1H-pyrazole-4-carboxamide]	0 to 33	0 to 33	–	–
CN(C)C(=O)Nc1cc2[nH]c(C(F)(F)F)cc2cn1 [Example 108, 1,1-dimethyl-3-(2-(trifluoromethyl)-1H-pyrrolo[3,2-c]pyridin-6-yl)urea]	–	–	> 1	–

Compound	inhibition at 1 µM [1] [%]	inhibition at 10 µM [2] [%]	EC50 [µM]	further results
CCOc1nccc(-c2cc3cnc(NC(=O)c4cn(CCO)nc4C)cc3[nH]2)n1 [Example 233, N-(2-(2-ethoxypyrimidin-4-yl)-1H-pyrrolo[3,2-c]pyridin-6-yl)-1-(2-hydroxyethyl)-3-methyl-1H-pyrazole-4-carboxamide]	0 to 33	33 to 66	–	–
Cn1cnc(-c2cc3cnc(NC(=O)C4CC4)cc3n2C)n1 [Example 57, N-(1-methyl-2-(1-methyl-1H-1,2,4-triazol-3-yl)-1H-pyrrolo[3,2-c]pyridin-6-yl)cyclopropanecarboxamide]	–	–	> 1	–
Cc1cc(-c2cc3cnc(NC(=O)c4cccc5cn[nH]c45)cc3[nH]2)ccn1 [Example 237, N-(2-(2-methylpyridin-4-yl)-1H-pyrrolo[3,2-c]pyridin-6-yl)-1H-indazole-7-carboxamide]	0 to 33	33 to 66	–	–
CN1CCC(c2cc3cnc(NC(=O)c4cnn(C)c4)cc3[nH]2)CC1 [Example 336, 1-methyl-N-(2-(1-methylpiperidin-4-yl)-1H-pyrrolo[3,2-c]pyridin-6-yl)-1H-pyrazole-4-carboxamide]	0 to 33	0 to 33	–	–
COc1nccc(-c2cc3cnc(NC(=O)c4cnn(C5CCCC5)c4)cc3[nH]2)n1 [Example 183, 1-cyclopentyl-N-(2-(2-methoxypyrimidin-4-yl)-1H-pyrrolo[3,2-c]pyridin-6-yl)-1H-pyrazole-4-carboxamide]	–	–	–	inhibition at 1 µM (single point inhibition @ 1 uM): 0 to 33%; inhibition at 10 µM [3]: 67 to 100%
CC(=O)Nc1cc2c(cn1)cc(-c1cc(C)ncn1)n2C [Example 119, N-(1-methyl-2-(6-methylpyrimidin-4-yl)-1H-pyrrolo[3,2-c]pyridin-6-yl)acetamide]	–	–	> 1	–
Cc1nn(C)cc1C(=O)Nc1cc2[nH]c(-c3ccnc(OCC(F)(F)F)n3)cc2cn1 [Example 226, 1,3-dimethyl-N-(2-(2-(2,2,2-trifluoroethoxy)pyrimidin-4-yl)-1H-pyrrolo[3,2-c]pyridin-6-yl)-1H-pyrazole-4-carboxamide]	0 to 33	33 to 66	–	–
Cc1nn(C)cc1C(=O)Nc1cc2[nH]c(-c3ccncc3)cc2cn1 [Example 278, 1,3-dimethyl-N-(2-(pyridin-4-yl)-1H-pyrrolo[3,2-c]pyridin-6-yl)-1H-pyrazole-4-carboxamide]	0 to 33	0 to 33	–	–
COc1nc(C)cc(-c2cc3cnc(NC(=O)c4cnn(C)c4)cc3[nH]2)n1 [Example 315, N-(2-(2-methoxy-6-methylpyrimidin-4-yl)-1H-pyrrolo[3,2-c]pyridin-6-yl)-1-methyl-1H-pyrazole-4-carboxamide]	0 to 33	0 to 33	–	–
Cc1cc(-c2[nH]c3cc(NC4CCOCC4)ncc3c2C)ccn1 [Example 362, 3-methyl-2-(2-methylpyridin-4-yl)-N-(tetrahydro-2H-pyran-4-yl)-1H-pyrrolo[3,2-c]pyridin-6-amine]	–	–	> 1	–
Cc1cc(-c2cc3cnc(NC(=O)C(C)C)cc3n2C)ncn1 [Example 118, N-(1-methyl-2-(6-methylpyrimidin-4-yl)-1H-pyrrolo[3,2-c]pyridin-6-yl)isobutyramide]	–	–	> 1	–
Cn1cc(C(=O)Nc2cc3[nH]c(-c4nc[nH]n4)cc3cn2)cn1 [Example 264, N-(2-(1H-1,2,4-triazol-3-yl)-1H-pyrrolo[3,2-c]pyridin-6-yl)-1-methyl-1H-pyrazole-4-carboxamide]	0 to 33	0 to 33	–	–
O=C(Nc1cc2[nH]c(-c3ccncc3)cc2cn1)C1CCCC1 [Example 137, N-(2-(pyridin-4-yl)-1H-pyrrolo[3,2-c]pyridin-6-yl)cyclopentanecarboxamide]	–	–	–	inhibition at 1 µM (single point inhibition @ 1 uM): 0 to 33%; inhibition at 10 µM [3]: 67 to 100%
Cn1cc(C(=O)Nc2cc3[nH]c(-c4ccnc(OC5CC(O)C5)n4)cc3cn2)cn1 (stereo not shown) [Example 324, N-(2-(2-(3-hydroxycyclobutoxy)pyrimidin-4-yl)-1H-pyrrolo[3,2-c]pyridin-6-yl)-1-methyl-1H-pyrazole-4-carboxamide]	0 to 33	0 to 33	–	–
Cc1cc(-c2cc3cnc(N[C@H]4CCCOC4)cc3[nH]2)ccn1 [Example 22, (S)-2-(2-Methylpyridin-4-yl)-N-(tetrahydro-2H-pyran-3-yl)-1H-pyrrolo[3,2-c]pyridin-6-amine]	–	–	> 1	inhibition at 1 µM (single point inhibition @ 1 uM): 33 to 66%; inhibition at 10 µM [3]: 67 to 100%
CNc1cc2c(cn1)cc(-c1cc(C)ncn1)n2C [Example 126, N,1-dimethyl-2-(6-methylpyrimidin-4-yl)-1H-pyrrolo[3,2-c]pyridin-6-amine]	–	–	> 1	–
Cc1cc(-c2cc3cnc(NC(=O)C4CC4)cc3n2CCN(C)C)ccn1 [Example 333, N-(1-(2-(dimethylamino)ethyl)-2-(2-methylpyridin-4-yl)-1H-pyrrolo[3,2-c]pyridin-6-yl)cyclopropanecarboxamide]	0 to 33	0 to 33	–	–
